Experimental data: PubChem BioAssay AID2060489 (Molecular Pharmacology Branch, DTP, NCI, 2025)
“And” between values parts separate entries of the source, which are not always exact repeats. Equal values may be shown once.

System: 922993-354-T-J3-PDC complex spheroids, viability
Test: Anticancer human tumor 922993-354-T-J3-PDC patient-derived endometrial carcinoma cell line growth inhibition [GQUAD]
Details: for viability, T/C: stronger effect = lower value
Method in brief: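 Tumor cells were grown as complex spheroids with HUVEC endothelial cells and mesenchymal stem cells as stroma. G-quadruplex stabilizers were combined with targeted agents over half-log dilutions from near the clinical Cmax, or from 10 microM.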

[1] = curve of first compound, second compound 0.0316 µM
[2] = curve of first compound, second compound 0.1 µM
[3] = curve of first compound, second compound 0.316 µM
[4] = curve of first compound, second compound 1 µM
[5] = curve of first compound, second compound 3.16 µM
[6] = curve of first compound, second compound 10 µM
[7] = second compound 0.0316 µM, first compound 0.0316 µM
[8] = second compound 0.0316 µM, first compound 0.1 µM
[9] = second compound 0.0316 µM, first compound 0.316 µM
[10] = second compound 0.0316 µM, first compound 1 µM
[11] = second compound 0.0316 µM, first compound 3.16 µM
[12] = second compound 0.0316 µM, first compound 10 µM
[13] = second compound 0.1 µM, first compound 0.0316 µM
[14] = second compound 0.1 µM, first compound 0.1 µM
[15] = second compound 0.1 µM, first compound 0.316 µM
[16] = second compound 0.1 µM, first compound 1 µM
[17] = second compound 0.1 µM, first compound 3.16 µM
[18] = second compound 0.1 µM, first compound 10 µM
[19] = second compound 0.316 µM, first compound 0.0316 µM
[20] = second compound 0.316 µM, first compound 0.1 µM
[21] = second compound 0.316 µM, first compound 0.316 µM
[22] = second compound 0.316 µM, first compound 1 µM
[23] = second compound 0.316 µM, first compound 3.16 µM
[24] = second compound 0.316 µM, first compound 10 µM
[25] = second compound 1 µM, first compound 0.0316 µM
[26] = second compound 1 µM, first compound 0.1 µM
[27] = second compound 1 µM, first compound 0.316 µM
[28] = second compound 1 µM, first compound 1 µM
[29] = second compound 1 µM, first compound 3.16 µM
[30] = second compound 1 µM, first compound 10 µM
[31] = second compound 3.16 µM, first compound 0.0316 µM
[32] = second compound 3.16 µM, first compound 0.1 µM
[33] = second compound 3.16 µM, first compound 0.316 µM
[34] = second compound 3.16 µM, first compound 1 µM
[35] = second compound 3.16 µM, first compound 3.16 µM
[36] = second compound 3.16 µM, first compound 10 µM
[37] = second compound 10 µM, first compound 0.0316 µM
[38] = second compound 10 µM, first compound 0.1 µM
[39] = second compound 10 µM, first compound 0.316 µM
[40] = second compound 10 µM, first compound 1 µM
[41] = second compound 10 µM, first compound 3.16 µM
[42] = second compound 10 µM, first compound 10 µM
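Further: spheroids exposed to compounds for seven days.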
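Wherever viability, T/C is given: 100% = DMSO vehicle control viability.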

SMILES: CCCS(=O)(=O)Nc1ccc(F)c(C(=O)c2c[nH]c3ncc(-c4ccc(Cl)cc4)cc23)c1F + CN(C)c1ccc(Nc2c3ccc(NC(=O)CCN4CCCC4)cc3nc3cc(NC(=O)CCN4CCCC4)ccc23)cc1
- IC50 [1]: > 10 µM
- IC50 [2]: 8.45 µM
- IC50 [3]: > 10 µM
- IC50 [4]: > 10 µM
- IC50 [5]: > 10 µM
- IC50 [6]: > 10 µM
- viability, T/C [7]: 91.6%
- viability, T/C [8]: 94.2%
- viability, T/C [9]: 103%
- viability, T/C [10]: 66.5%
- viability, T/C [11]: 72.2%
- viability, T/C [12]: 60.6%
- viability, T/C [13]: 78.2%
- viability, T/C [14]: 83.9%
- viability, T/C [15]: 95%
- viability, T/C [16]: 80.3%
- viability, T/C [17]: 68.1%
- viability, T/C [18]: 46.9%
- viability, T/C [19]: 105%
- viability, T/C [20]: 78.5%
- viability, T/C [21]: 89.6%
- viability, T/C [22]: 94.7%
- viability, T/C [23]: 83.1%
- viability, T/C [24]: 68.1%
- viability, T/C [25]: 82.5%
- viability, T/C [26]: 86%
- viability, T/C [27]: 83.3%
- viability, T/C [28]: 80.2%
- viability, T/C [29]: 79.3%
- viability, T/C [30]: 60.8%
- viability, T/C [31]: 97.5%
- viability, T/C [32]: 101%
- viability, T/C [33]: 108%
- viability, T/C [34]: 87.8%
- viability, T/C [35]: 84.9%
- viability, T/C [36]: 53.8%
- viability, T/C [37]: 103%
- viability, T/C [38]: 111%
- viability, T/C [39]: 131%
- viability, T/C [40]: 122%
- viability, T/C [41]: 115%
- viability, T/C [42]: 78.4%

SMILES: CC(C)n1c(=O)n(C)c2cnc3cc(F)c(-c4ccc(OCCCN5CCCCC5)nc4)cc3c21
- viability, T/C (compound 0.0316 µM): 96.3% and 98.6% and 87.9%
- viability, T/C (compound 0.1 µM): 105% and 85.5% and 77.3%
- viability, T/C (compound 0.316 µM): 70.1% and 91.7% and 63.2%
- viability, T/C (compound 1 µM): 96% and 84.2% and 81.9%
- viability, T/C (compound 3.16 µM): 77.9% and 79.6% and 84.8%
- viability, T/C (compound 10 µM): 49.7% and 55.9% and 41.8%
- IC50 (curve of compound): > 10 µM and 7.75 µM

SMILES: Cn1ncnc1[C@H]1c2n[nH]c(=O)c3cc(F)cc(c23)N[C@@H]1c1ccc(F)cc1 + CN(C)c1ccc(Nc2c3ccc(NC(=O)CCN4CCCC4)cc3nc3cc(NC(=O)CCN4CCCC4)ccc23)cc1
- IC50 [1]: > 0.316 µM
- IC50 [2]: > 0.316 µM
- IC50 [3]: 0.222 µM
- IC50 [4]: > 0.316 µM
- IC50 [5]: > 0.316 µM
- IC50 [6]: > 0.316 µM
- viability, T/C (second compound 0.0316 µM, first compound 0.000999 µM): 98.4%
- viability, T/C (second compound 0.0316 µM, first compound 0.00316 µM): 83.2%
- viability, T/C (second compound 0.0316 µM, first compound 0.00999 µM): 68.9%
- viability, T/C [7]: 79.6%
- viability, T/C (second compound 0.0316 µM, first compound 0.0999 µM): 95.2%
- viability, T/C [9]: 60.4%
- viability, T/C (second compound 0.1 µM, first compound 0.000999 µM): 111%
- viability, T/C (second compound 0.1 µM, first compound 0.00316 µM): 93.7%
- viability, T/C (second compound 0.1 µM, first compound 0.00999 µM): 98.1%
- viability, T/C [13]: 90.1%
- viability, T/C (second compound 0.1 µM, first compound 0.0999 µM): 91.8%
- viability, T/C [15]: 55.4%
- viability, T/C (second compound 0.316 µM, first compound 0.000999 µM): 97.4%
- viability, T/C (second compound 0.316 µM, first compound 0.00316 µM): 85.7%
- viability, T/C (second compound 0.316 µM, first compound 0.00999 µM): 91.7%
- viability, T/C [19]: 111%
- viability, T/C (second compound 0.316 µM, first compound 0.0999 µM): 84.4%
- viability, T/C [21]: 34.7%
- viability, T/C (second compound 1 µM, first compound 0.000999 µM): 93.6%
- viability, T/C (second compound 1 µM, first compound 0.00316 µM): 108%
- viability, T/C (second compound 1 µM, first compound 0.00999 µM): 96%
- viability, T/C [25]: 92.1%
- viability, T/C (second compound 1 µM, first compound 0.0999 µM): 109%
- viability, T/C [27]: 60.1%
- viability, T/C (second compound 3.16 µM, first compound 0.000999 µM): 78%
- viability, T/C (second compound 3.16 µM, first compound 0.00316 µM): 83.5%
- viability, T/C (second compound 3.16 µM, first compound 0.00999 µM): 109%
- viability, T/C [31]: 106%
- viability, T/C (second compound 3.16 µM, first compound 0.0999 µM): 105%
- viability, T/C [33]: 72.2%
- viability, T/C (second compound 10 µM, first compound 0.000999 µM): 108%
- viability, T/C (second compound 10 µM, first compound 0.00316 µM): 118%
- viability, T/C (second compound 10 µM, first compound 0.00999 µM): 123%
- viability, T/C [37]: 107%
- viability, T/C (second compound 10 µM, first compound 0.0999 µM): 98.5%
- viability, T/C [39]: 83%

SMILES: CC(C)n1c(=O)n(C)c2cnc3cc(F)c(-c4ccc(OCCCN5CCCCC5)nc4)cc3c21 + CN(C)c1ccc(Nc2c3ccc(NC(=O)CCN4CCCC4)cc3nc3cc(NC(=O)CCN4CCCC4)ccc23)cc1
- IC50 [1]: > 10 µM
- IC50 [2]: > 10 µM
- IC50 [3]: > 10 µM
- IC50 [4]: > 10 µM
- IC50 [5]: 7.04 µM
- IC50 [6]: 1.82 µM
- viability, T/C [7]: 118%
- viability, T/C [8]: 84.9%
- viability, T/C [9]: 99.3%
- viability, T/C [10]: 59.6%
- viability, T/C [11]: 91.7%
- viability, T/C [12]: 71.4%
- viability, T/C [13]: 114%
- viability, T/C [14]: 89.5%
- viability, T/C [15]: 101%
- viability, T/C [16]: 73.3%
- viability, T/C [17]: 81.7%
- viability, T/C [18]: 59%
- viability, T/C [19]: 99.3%
- viability, T/C [20]: 91.7%
- viability, T/C [21]: 97%
- viability, T/C [22]: 70.2%
- viability, T/C [23]: 84.7%
- viability, T/C [24]: 70.9%
- viability, T/C [25]: 81.2%
- viability, T/C [26]: 97%
- viability, T/C [27]: 92.2%
- viability, T/C [28]: 82.1%
- viability, T/C [29]: 77.1%
- viability, T/C [30]: 65%
- viability, T/C [31]: 96.8%
- viability, T/C [32]: 103%
- viability, T/C [33]: 98.5%
- viability, T/C [34]: 76%
- viability, T/C [35]: 67.6%
- viability, T/C [36]: 43%
- viability, T/C [37]: 114%
- viability, T/C [38]: 73.7%
- viability, T/C [39]: 114%
- viability, T/C [40]: 67%
- viability, T/C [41]: 36.1%
- viability, T/C [42]: 32.3%

SMILES: CC1COCCN1c1cc(C2(S(C)(=N)=O)CC2)nc(-c2ccnc3[nH]ccc23)n1 (stereo not given) + Cc1cnc(CNC(=O)c2c(=O)c3ccc(N4CCCN(C)CC4)nc3n3c2sc2ccccc23)cn1
- IC50 [1]: 7.86 µM
- IC50 [2]: 5.47 µM
- IC50 [3]: 0.172 µM
- IC50 [4]: > 10 µM
- IC50 [5]: > 10 µM
- IC50 [6]: < 0.0316 µM
- viability, T/C [7]: 87.9%
- viability, T/C [8]: 79.4%
- viability, T/C [9]: 82.8%
- viability, T/C [10]: 67.9%
- viability, T/C [11]: 91.5%
- viability, T/C [12]: 41.6%
- viability, T/C [13]: 70.4%
- viability, T/C [14]: 63.5%
- viability, T/C [15]: 55.2%
- viability, T/C [16]: 61%
- viability, T/C [17]: 66%
- viability, T/C [18]: 35.5%
- viability, T/C [19]: 59.9%
- viability, T/C [20]: 50.7%
- viability, T/C [21]: 50.9%
- viability, T/C [22]: 38.8%
- viability, T/C [23]: 50.5%
- viability, T/C [24]: 39.2%
- viability, T/C [25]: 46.3%
- viability, T/C [26]: 60.1%
- viability, T/C [27]: 51.7%
- viability, T/C [28]: 45.2%
- viability, T/C [29]: 48.5%
- viability, T/C [30]: 53.3%
- viability, T/C [31]: 49.1%
- viability, T/C [32]: 52.8%
- viability, T/C [33]: 54.4%
- viability, T/C [34]: 48%
- viability, T/C [35]: 54.4%
- viability, T/C [36]: 52.5%
- viability, T/C [37]: 51.8%
- viability, T/C [38]: 42.9%
- viability, T/C [39]: 54%
- viability, T/C [40]: 50.6%
- viability, T/C [41]: 47.3%
- viability, T/C [42]: 53.6%
